Where “and” joins values, the source holds several entries; their conditions need not be identical. Identical values can stand only once.
Tests used:
[1] = test system: CCC-5 cholangiocarcinoma cells; experiment: Chou-Talalay combination assay, Cell Titer Glo; type: cell-based; conditions: 72 hour incubation; for CI range: combination with pyrvinium pamoate
Experimental: (§1) Following a 72 hour incubation, cell viability was determined using Cell Titer Glo.

[2] = test system: TFK-1 cholangiocarcinoma cells; experiment: Chou-Talalay combination assay, Cell Titer Glo; type: cell-based; conditions: 72 hour incubation; for CI range: combination with pyrvinium pamoate
Experimental: as §1

[3] = test system: GIST-1 gastrointestinal stromal tumor cells; experiment: Chou-Talalay combination assay, Cell Titer Glo; type: cell-based; conditions: combination with pyrvinium pamoate, 72 hour incubation
Experimental: as §1

[4] = test system: SK-LMS-1 leiomyosarcoma cells; experiment: Chou-Talalay combination assay, Cell Titer Glo; type: cell-based; conditions: combination with pyrvinium pamoate, 72 hour incubation
Experimental: as §1

[5] = test system: CHP-212 neuroblastoma cells; experiment: Chou-Talalay combination assay, Cell Titer Glo; type: cell-based; conditions: 72 hour incubation; for CI range: combination with pyrvinium pamoate
Experimental: as §1

[6] = test system: IMR-32 neuroblastoma cells; experiment: Chou-Talalay combination assay, Cell Titer Glo; type: cell-based; conditions: combination with pyrvinium pamoate, 72 hour incubation
Experimental: as §1

[7] = test system: COV362 ovarian carcinoma cells; experiment: Chou-Talalay combination assay, Cell Titer Glo; type: cell-based; conditions: combination with pyrvinium pamoate, 72 hour incubation
Experimental: as §1

[8] = test system: Hs766t pancreatic carcinoma cells; experiment: Chou-Talalay combination assay, Cell Titer Glo; type: cell-based; conditions: 72 hour incubation
Experimental: as §1

[9] = test system: Rh30 rhabdomyosarcoma cells; experiment: Chou-Talalay combination assay, Cell Titer Glo; type: cell-based; conditions: combination with pyrvinium pamoate, 72 hour incubation
Experimental: as §1

[10] = test system: DMS-114 small cell lung carcinoma cells; experiment: Chou-Talalay combination assay, Cell Titer Glo; type: cell-based; conditions: combination with pyrvinium pamoate, 72 hour incubation
Experimental: as §1

[11] = test system: SW-1271 small cell lung carcinoma cells; experiment: Chou-Talalay combination assay, Cell Titer Glo; type: cell-based; conditions: combination with pyrvinium pamoate, 72 hour incubation
Experimental: as §1

[12] = test system: BxPC-3 pancreatic carcinoma cells; experiment: Chou-Talalay combination assay, Cell Titer Glo; conditions: combination with pyrvinium pamoate, 72 hour incubation
Experimental: as §1

[13] = test system: PC12 pheochromocytoma/paraganglioma cells; conditions: combination with pyrvinium pamoate, 72 hour incubation
Experimental: as §1

[14] = test system: NCI-H295R adrenocortical carcinoma cells; experiment: Chou-Talalay combination assay, Cell Titer Glo; type: cell-based; conditions: combination with pyrvinium pamoate, 72 hour incubation
Experimental: as §1

[15] = test system: SW13 adrenocortical carcinoma cells; experiment: Chou-Talalay combination assay, Cell Titer Glo; type: cell-based; conditions: 72 hour incubation
Experimental: as §1

[16] = test system: carcinoid tumor cell line STC-1; experiment: Chou-Talalay combination assay, Cell Titer Glo; type: cell-based; conditions: combination with pyrvinium pamoate, 72 hour incubation
Experimental: as §1

[17] = test system: UM-Chor1 chordoma cell line; experiment: Chou-Talalay combination assay, Cell Titer Glo; type: cell-based; conditions: combination with pyrvinium pamoate, 72 hour incubation
Experimental: as §1

[18] = test system: TC-32 Ewing's sarcoma cells; experiment: Chou-Talalay combination assay, Cell Titer Glo; type: cell-based; conditions: combination with pyrvinium pamoate, 72 hour incubation
Experimental: as §1

[19] = test system: TC-71 Ewing's sarcoma cells; experiment: Chou-Talalay combination assay, Cell Titer Glo; type: cell-based; conditions: 72 hour incubation
Experimental: as §1

[20] = test system: Kato-III gastric carcinoma cells; experiment: Chou-Talalay combination assay, Cell Titer Glo; type: cell-based; conditions: Kato-III; combination with pyrvinium pamoate; 72 hour incubation
Experimental: as §1

[21] = test system: SNU-16 gastric carcinoma cells; experiment: Chou-Talalay combination assay, Cell Titer Glo; type: cell-based; conditions: combination with pyrvinium pamoate, 72 hour incubation
Experimental: as §1

[22] = test system: SK-UT-1 leiomyosarcoma cells; experiment: Chou-Talalay combination assay, Cell Titer Glo; type: cell-based; conditions: combination with pyrvinium pamoate, 72 hour incubation
Experimental: as §1

[23] = test system: SK-UT-1B leiomyosarcoma cells; experiment: Chou-Talalay combination assay, Cell Titer Glo; type: cell-based; conditions: combination with pyrvinium pamoate, 72 hour incubation
Experimental: as §1

LO-68 mesothelioma cells = experiment: Chou-Talalay combination assay, Cell Titer Glo; type: cell-based; conditions: combination with pyrvinium pamoate, 72 hour incubation
Experimental: as §1

JU-77 mesothelioma cells = experiment: Chou-Talalay combination assay, Cell Titer Glo; type: cell-based; conditions: combination with pyrvinium pamoate, 72 hour incubation
Experimental: as §1

[24] = test system: SK-N-AS neuroblastoma cells; experiment: Chou-Talalay combination assay, Cell Titer Glo; type: cell-based; conditions: SK-N-AS; combination with pyrvinium pamoate; 72 hour incubation
Experimental: as §1

[25] = test system: TOV-112D ovarian carcinoma cells; experiment: Chou-Talalay combination assay, Cell Titer Glo; type: cell-based; conditions: 72 hour incubation
Experimental: as §1

[26] = test system: SKOV-3 ovarian carcinoma cells; experiment: Chou-Talalay combination assay, Cell Titer Glo; type: cell-based; conditions: combination with pyrvinium pamoate, 72 hour incubation
Experimental: as §1

[27] = test system: Rh41 rhabdomyosarcoma cells; experiment: Chou-Talalay combination assay, Cell Titer Glo; type: cell-based; conditions: combination with pyrvinium pamoate, 72 hour incubation
Experimental: as §1

[28] = combination with pyrvinium pamoate

Structure (SMILES): CCN1CCN(Cc2ccc(Nc3ncc(F)c(-c4cc(F)c5nc(C)n(C(C)C)c5c4)n3)nc2)CC1 [Abemaciclib]
- CI range [1]: 0.628-0.841
- CI range [2]: 0.522-0.884
- CI range [3]: 0.249-0.699
- CI range [4]: 0.350-0.808
- CI range [5]: 0.076-0.772
- CI range [6]: (0.485-0.860)
- CI range [7]: 0.144-0.714
- CI range [8, 28]: 0.587-0.863 and 0.304-0.879
- CI range [9]: 0.148-0.886
- CI range [10]: 0.327-0.876
- CI range [11]: 0.183-0.889
- CI range [12]: 0.417-0.895

Structure (SMILES): CN(C)/N=N/c1[nH]cnc1C(N)=O [Dacarbazine]
- CI range [13]: 0.550-0.818

Structure (SMILES): COc1cccc2c1C(=O)c1c(O)c3c(c(O)c1C2=O)C[C@@](O)(C(=O)CO)C[C@@H]3O[C@H]1C[C@H](N)[C@H](O)[C@H](C)O1 [Doxorubicin]
- CI range [14]: 0.185-0.872
- Synergy with pyrvinium pamoate [15]: No
- CI range [16]: 0.807-0.890
- CI range [1]: 0.341-0.805
- Synergy with pyrvinium pamoate [2]: No
- CI range [17]: 0.423-0.875
- CI range [18]: 0.424-0.872
- Synergy with pyrvinium pamoate [19]: No
- CI range [20]: Yes- (0.021-0.584)
- CI range [21]: 0.614-0.878
- CI range [3]: 0.169-0.883
- CI range [22]: (0.556-0.858)
- CI range [23]: 0.352-0.739
- CI range (LO-68 mesothelioma cells): 0.008-0.642
- CI range (JU-77 mesothelioma cells): 0.444-0.889
- CI range [24]: Yes- (0.082-0.879)
- CI range [5]: 0.696-0.812
- CI range [7]: 0.021-0.895
- Synergy with pyrvinium pamoate [25]: No
- CI range [26]: (0.017-0.870)
- CI range [27]: 0.145-0.834

Structure (SMILES): CC[C@]1(O)C[C@H]2CN(CCc3c([nH]c4ccccc34)[C@@](C(=O)OC)(c3cc4c(cc3OC)N(C=O)[C@H]3[C@@](O)(C(=O)OC)[C@H](OC(C)=O)[C@]5(CC)C=CCN6CC[C@]43[C@@H]65)C2)C1 [Vincristine]
- CI range [14]: 0.752-0.827
- CI range [15, 28]: 0.499-0.875
- CI range [16]: 0.036-0.854
- Synergy with pyrvinium pamoate [1]: No
- CI range [2]: 0.453-0.827
- CI range [17]: 0.249-0.560
- CI range [18]: 0.659-0.869
- CI range [19, 28]: 0.251-0.898
- CI range [3]: 0.231-0.756 and 0.150-0.772
- CI range [4]: 0.163-0.831
- Synergy with pyrvinium pamoate [5]: No
- CI range [7]: 0.432-0.825
- CI range [25, 28]: 0.477-0.858
- Synergy with pyrvinium pamoate [8]: No
- CI range [9]: 0.477-0.883
- CI range [27]: 0.284-0.876
- CI range [13]: 0.614-0.841
- CI range [12]: 0.347-0.869

Reference: patent publication US10933061B2 (Shepherd Therapeutics, Inc., priority 2017, dated 2021)
